The source of these data is paper PMC8151276, “An Integrated Approach toward NanoBRET Tracers for Analysis of GPCR Ligand Engagement” (Molecules, 2021).

Each structure is given as a SMILES string.

What all share (type): binding
The target in one assay is T1, C5AR2 (Homo sapiens, UniProt Q9P296).
T1 construct: purchased Promega (in-house HiBiT-GPCR construct library, NanoBRET)
The assay is described as follows: NanoBRET screen HiBiT-C5AR2 in HEK293. The method, then: (§1) Each tracer candidate was screened across the entire library of HiBiT-GPCR constructs using NanoBRET as the detection modality. As depicted in Figure 4A, the specificity of interactions was evaluated through decrease in BRET due to competitive displacement of a bound tracer by excess parental compound. Each tracer was analyzed for binding to each HiBiT-GPCR fusion in the absence and in the presence of competing parental compound. Briefly, HEK293 cells were transfected with HiBiT-GPCR constructs diluted into promoterless DNA to reduce expression and maximize translocation to the cell surface. Each tracer candidate was then screened at concentrations of 1 μM and 0.1 μM across cells expressing these fusions. Cells were treated for 1.5 h with tracer either alone or in the presence of 20 μM competing parental compound (i.e., control). BRET was measured upon addition of purified LgBiT and subsequent complementation with HiBiT genetically fused to a GPCR. The specificity of interactions was assessed through a decrease in BRET signal due to competitive displacement of the bound tracer. To further gauge the robustness of these interactions, the fold response over the control (i.e., BRETtracer/BRETcontrol) was calculated. We chose a 1.5-fold response, which translates to ≥7-fold signal over noise as the minimal threshold required to score an interaction as positive. […]. Below we highlight the screening results obtained for our exemplary fluorescent tracers based on Clozapine, Amitriptyline and AZD1283.
(§2) HiBiT-GPCR DNA constructs were diluted in 10 mM Tris pH 8 to a final concentration of 0.01 μg/μL, arrayed in 96-well plates and stored at −20 °C. For transfection, HEK293 cells were suspended in Opti-MEM (without phenol red) supplemented with 2% fetal bovine serum (Seradigm) and 100 units/mL penicillin–streptomycin (Gibco) at a final concentration of 220,000 cells/mL and dispensed into white 96-well plates at 90 μL/well. Subsequent transfections and screens were carried using an Agilent Bravo Automated Liquid Handling Platform. First, the 96-well HiBiT DNA arrays were diluted 25-fold in Opti-MEM (without serum or phenol red) to a final concentration of 0.0004 μg/μL and 20 μL of the diluted DNAs were transferred into new 96-well plates. Next, promoterless carrier DNA (1 μg/μL) was diluted 25-fold (0.04 μg/μL) and then dispensed into the diluted arrays at 20 μL/well. Following brief mixing, Viafect transfection reagent (Promega) diluted 16-fold into Opti-MEM was dispensed into the plates at 40 μL/well. After mixing by pipetting, plates were incubated for 10 min on the pipetting station deck. The DNA-transfection reagent complexes were then added to plates containing cells. To facilitate the screen, 10 μL of DNA-transfection reagent complexes were added in duplicates to the top 4 and bottom 4 rows, resulting in two identical 48-well arrays per plate. Plates with transfected cells were incubated for 18–20 h at 37 °C/5% CO2. A screen of each tracer across the entire library using two different concentrations requires duplicate plates of transfected cells. Depending on the number of tracers being screened, transfections can be scaled up using the same ratios. The next day, for each tracer, four 20× screening solutions in tracer dilution buffer (Promega) were prepared: two duplicates at final concentration of 20 μM and two duplicates at a final concentration of 2 μM. A competing unmodified compound was added to one of each duplicate at a final concentration of 400 μM. The four resulting solutions were diluted 4-fold in Opti-MEM without serum or phenol red to generate 5× solutions (5 µM and 0.5 µM tracer +/− 100 μM competing compound). To screen the library, a BioTek MultiFlo FX liquid dispenser was used to dispense 22.5 µL of tracer solution to the top 4 rows and 22.5 µL tracer + competing compound solution to the 4 bottom rows. Plates were briefly mixed on an orbital shaker and incubated for 1.5 h at room temperature. […]
For orientation: In BRET a luciferase serves as donor, and the signal depends on an acceptor being close.

A further assay concerns the target T2, FZD2 (Homo sapiens, UniProt Q14332).
T2 construct: purchased Promega (in-house HiBiT-GPCR construct library, NanoBRET)
Description: NanoBRET screen HiBiT-FZD2 in HEK293. The method, then: as §1, §2

For the next assay, the target named is T3, GABBR1 (Homo sapiens, UniProt Q9UBS5).
T3 construct: purchased Promega (in-house HiBiT-GPCR construct library, NanoBRET)
The assay is described as follows: NanoBRET screen HiBiT-GABBR1 in HEK293. The procedure:
as §1, §2

The target in the next assay is T4, GRM3 (Homo sapiens, UniProt Q14832).
T4 construct: purchased Promega (in-house HiBiT-GPCR construct library, NanoBRET)
The assay is described as follows: NanoBRET screen HiBiT-GRM3 in HEK293. The procedure:
as §1, §2

In the next assay the target is T5, SSTR5 (Homo sapiens, UniProt P35346).
T5 construct: purchased Promega (in-house HiBiT-GPCR construct library, NanoBRET)
Description: NanoBRET screen HiBiT-SSTR5 in HEK293. The procedure: as §1, §2

The next assay addresses T6, P2RY10 (Homo sapiens, UniProt O00398).
T6 construct: purchased Promega (in-house HiBiT-GPCR construct library, NanoBRET)
Description: NanoBRET screen HiBiT-P2RY10 in HEK293. The procedure:
as §1, §2

T3 sequence (Q9UBS5 15-961 limits assumed): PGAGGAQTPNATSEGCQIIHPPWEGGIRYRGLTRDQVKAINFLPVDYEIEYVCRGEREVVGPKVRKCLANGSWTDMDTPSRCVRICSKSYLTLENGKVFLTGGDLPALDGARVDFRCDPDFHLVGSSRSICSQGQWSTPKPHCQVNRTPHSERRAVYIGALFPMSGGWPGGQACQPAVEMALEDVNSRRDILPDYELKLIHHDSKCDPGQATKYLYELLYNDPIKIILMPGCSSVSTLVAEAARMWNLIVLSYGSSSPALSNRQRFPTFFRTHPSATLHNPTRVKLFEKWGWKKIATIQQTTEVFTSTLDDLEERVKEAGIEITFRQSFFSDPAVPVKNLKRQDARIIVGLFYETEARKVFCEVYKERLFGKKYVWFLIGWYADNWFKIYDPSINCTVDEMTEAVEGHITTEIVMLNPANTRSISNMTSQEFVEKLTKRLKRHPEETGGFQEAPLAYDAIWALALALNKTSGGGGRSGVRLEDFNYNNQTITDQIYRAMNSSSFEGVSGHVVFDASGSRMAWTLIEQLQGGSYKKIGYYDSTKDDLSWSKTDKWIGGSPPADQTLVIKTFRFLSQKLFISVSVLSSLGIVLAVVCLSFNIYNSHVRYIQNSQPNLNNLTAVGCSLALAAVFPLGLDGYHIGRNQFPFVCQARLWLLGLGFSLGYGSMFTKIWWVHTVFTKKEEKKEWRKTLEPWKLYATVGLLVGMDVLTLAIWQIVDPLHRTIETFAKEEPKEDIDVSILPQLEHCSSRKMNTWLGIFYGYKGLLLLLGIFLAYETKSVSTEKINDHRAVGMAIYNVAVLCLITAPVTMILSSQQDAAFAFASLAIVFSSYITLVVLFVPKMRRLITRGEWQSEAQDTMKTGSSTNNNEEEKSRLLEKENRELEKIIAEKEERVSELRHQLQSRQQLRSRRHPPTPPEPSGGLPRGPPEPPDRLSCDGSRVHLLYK
T4 sequence (Q14832 23-879): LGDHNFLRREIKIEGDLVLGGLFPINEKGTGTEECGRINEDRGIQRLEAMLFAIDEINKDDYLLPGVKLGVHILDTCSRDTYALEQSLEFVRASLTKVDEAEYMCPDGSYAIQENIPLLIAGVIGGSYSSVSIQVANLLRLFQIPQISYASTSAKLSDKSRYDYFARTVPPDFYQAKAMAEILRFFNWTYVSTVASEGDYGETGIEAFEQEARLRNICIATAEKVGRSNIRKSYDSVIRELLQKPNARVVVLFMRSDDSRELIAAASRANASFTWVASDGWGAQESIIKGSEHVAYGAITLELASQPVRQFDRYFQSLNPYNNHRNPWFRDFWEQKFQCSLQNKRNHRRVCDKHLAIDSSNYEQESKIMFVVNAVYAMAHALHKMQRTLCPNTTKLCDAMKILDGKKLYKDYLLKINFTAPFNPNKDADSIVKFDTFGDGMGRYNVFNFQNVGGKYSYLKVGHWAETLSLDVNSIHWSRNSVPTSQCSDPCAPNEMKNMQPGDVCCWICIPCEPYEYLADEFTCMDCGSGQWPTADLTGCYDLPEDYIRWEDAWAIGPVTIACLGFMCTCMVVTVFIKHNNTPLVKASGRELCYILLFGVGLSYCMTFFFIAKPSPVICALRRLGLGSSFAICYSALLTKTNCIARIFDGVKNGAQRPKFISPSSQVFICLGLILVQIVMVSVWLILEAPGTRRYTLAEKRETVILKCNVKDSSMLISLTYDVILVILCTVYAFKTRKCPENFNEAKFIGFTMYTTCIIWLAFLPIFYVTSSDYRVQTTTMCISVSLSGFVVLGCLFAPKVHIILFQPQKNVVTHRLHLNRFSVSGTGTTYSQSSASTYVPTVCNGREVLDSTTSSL
T1 sequence (Q9P296 whole entry): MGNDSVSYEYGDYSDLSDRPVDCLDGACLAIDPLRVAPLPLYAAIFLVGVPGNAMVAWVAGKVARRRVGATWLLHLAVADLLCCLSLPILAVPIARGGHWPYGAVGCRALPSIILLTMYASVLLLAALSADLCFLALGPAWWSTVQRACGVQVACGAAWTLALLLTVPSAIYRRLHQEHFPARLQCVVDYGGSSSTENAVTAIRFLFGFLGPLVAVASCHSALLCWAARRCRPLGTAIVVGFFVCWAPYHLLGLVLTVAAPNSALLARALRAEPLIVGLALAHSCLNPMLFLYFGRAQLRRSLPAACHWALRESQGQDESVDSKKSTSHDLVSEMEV
T5 sequence (P35346 whole entry): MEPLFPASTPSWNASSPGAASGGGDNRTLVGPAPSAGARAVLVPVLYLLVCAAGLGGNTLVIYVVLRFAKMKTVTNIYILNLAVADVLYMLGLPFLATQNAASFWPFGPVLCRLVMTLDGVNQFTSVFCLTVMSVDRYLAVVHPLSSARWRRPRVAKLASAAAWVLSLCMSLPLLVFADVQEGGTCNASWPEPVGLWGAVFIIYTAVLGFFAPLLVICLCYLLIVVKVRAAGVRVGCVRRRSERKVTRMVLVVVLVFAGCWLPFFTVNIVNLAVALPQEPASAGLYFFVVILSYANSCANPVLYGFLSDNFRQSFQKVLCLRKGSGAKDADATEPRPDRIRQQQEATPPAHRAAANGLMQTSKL
T2 sequence (Q14332 24-565): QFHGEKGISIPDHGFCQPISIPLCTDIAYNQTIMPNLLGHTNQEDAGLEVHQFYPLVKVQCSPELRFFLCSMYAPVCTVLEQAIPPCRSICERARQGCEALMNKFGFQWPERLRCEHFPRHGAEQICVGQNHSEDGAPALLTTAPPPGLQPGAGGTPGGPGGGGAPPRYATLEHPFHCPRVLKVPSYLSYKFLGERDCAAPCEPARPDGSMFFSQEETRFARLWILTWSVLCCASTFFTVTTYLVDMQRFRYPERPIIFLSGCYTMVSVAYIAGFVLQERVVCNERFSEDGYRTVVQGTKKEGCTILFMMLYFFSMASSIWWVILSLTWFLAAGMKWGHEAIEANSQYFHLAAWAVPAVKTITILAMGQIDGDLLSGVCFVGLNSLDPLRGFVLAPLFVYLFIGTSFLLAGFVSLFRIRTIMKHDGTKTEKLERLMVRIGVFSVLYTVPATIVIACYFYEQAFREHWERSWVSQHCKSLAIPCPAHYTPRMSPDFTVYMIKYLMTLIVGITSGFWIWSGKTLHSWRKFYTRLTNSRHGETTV
T6 sequence (O00398 whole entry, one chain of several): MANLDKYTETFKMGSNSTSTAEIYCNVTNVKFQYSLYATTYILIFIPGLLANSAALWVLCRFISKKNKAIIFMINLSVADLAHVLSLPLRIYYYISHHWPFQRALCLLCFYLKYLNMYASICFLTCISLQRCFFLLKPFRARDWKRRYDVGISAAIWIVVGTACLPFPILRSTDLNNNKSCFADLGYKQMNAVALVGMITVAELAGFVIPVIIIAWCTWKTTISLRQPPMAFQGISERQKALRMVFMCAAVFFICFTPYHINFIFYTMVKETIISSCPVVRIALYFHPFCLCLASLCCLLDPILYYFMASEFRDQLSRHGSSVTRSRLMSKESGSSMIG

As for `O=C(CCc1ccc2n1[B-](F)(F)[N+]1=C(c3ccc[nH]3)C=CC1=C2)NCc1ccc(C(=O)NCCOCCOCCNCC(O)COc2cccc3ccccc23)cc1` (stereo not drawn) [Propranolol-3-NB590], the “NanoBRET Fold Response” value is recorded as 1.00 on C5AR2 (C5AR2, 0.1μM); 1.01 at C5AR2 (C5AR2, 1μM); 0.97 at FZD2 (FZD2, 0.1μM); 1.01 on FZD2 (FZD2, 1μM); 1.10 on GABBR1 (GABBR1, 0.1μM); 1.05 at GABBR1 (GABBR1, 1μM). Also, the “NanoBRET Fold Response” value at GRM3 (GRM3, 0.1μM) is recorded as 1.02; at GRM3 (GRM3, 1μM), 0.95; at SSTR5 (SSTR5, 0.1μM), 1.01; on SSTR5 (SSTR5, 1μM), 1.02; on P2RY10 (P2RY10, 0.1μM), 1.34; on P2RY10 (P2RY10, 1μM), 0.95.
Regarding `COc1ccccc1N1CCN(CCCCN2C(=O)c3ccc(CNC(=O)CCOCCNC(=O)c4ccc(CNC(=O)CCc5ccc6n5[B-](F)(F)[N+]5=C(c7ccc[nH]7)C=CC5=C6)cc4)cc3C2=O)CC1` [NAN-190-3-NB590], the “NanoBRET Fold Response” value is recorded as 0.87 at C5AR2 (C5AR2, tracer 0.1μM); 1.07 on C5AR2 (C5AR2, tracer 1μM); 0.88 at FZD2 (FZD2, tracer 0.1μM); 1.44 at FZD2 (FZD2, tracer 1μM); 0.80 at GABBR1 (GABBR1, tracer 0.1μM); 1.07 on GABBR1 (GABBR1, tracer 1μM). Besides, the “NanoBRET Fold Response” value was 0.98 at GRM3 (GRM3, tracer 0.1μM); 1.25 at GRM3 (GRM3, tracer 1μM); 1.02 on SSTR5 (SSTR5, tracer 0.1μM); 1.03 at SSTR5 (SSTR5, tracer 1μM); 1.23 at P2RY10 (P2RY10, tracer 0.1μM); 1.08 on P2RY10 (P2RY10, tracer 1μM).
For `O=C(CCc1ccc2n1[B-](F)(F)[N+]1=C(c3ccc[nH]3)C=CC1=C2)NCc1ccc(C(=O)NCCOCCC(=O)N[C@@H]2CC[C@@]3(O)[C@H]4Cc5ccc(O)c6c5[C@@]3(CCN4CC3CC3)[C@H]2O6)cc1` [Naltrexone-3-NB590], the “NanoBRET Fold Response” value at C5AR2 (C5AR2, tracer 0.1μM) was 0.95; at C5AR2 (C5AR2, tracer 1μM), 1.01; on FZD2 (FZD2, tracer 0.1μM) it was 0.84; on FZD2 (FZD2, tracer 1μM), 0.88; on GABBR1 (GABBR1, tracer 0.1μM), 0.93; at GABBR1 (GABBR1, tracer 1μM), 0.49. Besides, the “NanoBRET Fold Response” value on GRM3 (GRM3, tracer 0.1μM) came out at 1.15; on GRM3 (GRM3, tracer 1μM), 0.81; at SSTR5 (SSTR5, tracer 0.1μM), 0.96; on SSTR5 (SSTR5, tracer 1μM), 0.96; at P2RY10 (P2RY10, tracer 0.1μM), 1.07; on P2RY10 (P2RY10, tracer 1μM), 1.36.
As to `CCOC(=O)c1cc(C#N)c(N2CCC(C(=O)NS(=O)(=O)Cc3ccccc3/C=C/C(=O)NCCNC(=O)CCc3ccc4n3[B-](F)(F)[N+]3=C(c5ccc[nH]5)C=CC3=C4)CC2)nc1C` [AZD1283-1-NB590], the “NanoBRET Fold Response” value on C5AR2 (C5AR2, 0.1μM) was 0.97; at C5AR2 (C5AR2, 1μM), 1.12; at FZD2 (FZD2, 0.1μM), 1.04; at FZD2 (FZD2, 1μM), 1.11; at GABBR1 (GABBR1, 0.1μM) it was 1.05; at GABBR1 (GABBR1, 1μM) it was 1.13. The “NanoBRET Fold Response” value was found to be 0.97 at GRM3 (GRM3, 0.1μM); 0.99 at GRM3 (GRM3, 1μM); 1.09 at SSTR5 (SSTR5, 0.1μM); 1.05 on SSTR5 (SSTR5, 1μM); 1.35 on P2RY10 (P2RY10, 0.1μM); 1.22 at P2RY10 (P2RY10, 1μM).
As for `COc1ccc2[nH]c(-c3ccc(CNC(=O)CCOCCOCCOCCOCCNC(=O)CCc4ccc5n4[B-](F)(F)[N+]4=C(c6ccc[nH]6)C=CC4=C5)cc3)c(CCNC(C)=O)c2n1` [AzomelatoninICO9-2-NB590], the “NanoBRET Fold Response” value at C5AR2 (0.1μM tracer) worked out at 1.13; on C5AR2 (1μM tracer) it was 0.89; on FZD2 (0.1μM tracer), 0.99; on FZD2 (1μM tracer), 1.11; at GABBR1 (0.1μM tracer), 0.66; at GABBR1 (1μM tracer), 0.57. The “NanoBRET Fold Response” value on GRM3 (0.1μM tracer) is on record as 1.03; on GRM3 (1μM tracer) it was 0.85; on SSTR5 (0.1μM tracer), 1.01; on SSTR5 (1μM tracer) it was 1.01; on P2RY10 (0.1μM tracer), 0.88; on P2RY10 (1μM tracer), 1.15.
For the compound `CC(C)N(CC[C@H](c1ccccc1)c1cc(CCNC(=O)CCOCCOCCOCCOCCNC(=O)CCc2ccc3n2[B-](F)(F)[N+]2=C(c4ccc[nH]4)C=CC2=C3)ccc1O)C(C)C` [Tolterodine-2-NB590], the “NanoBRET Fold Response” value was determined as 0.98 at C5AR2 (C5AR2, tracer 0.1μM); 0.92 at C5AR2 (C5AR2, tracer 1μM); 0.91 on FZD2 (FZD2, tracer 0.1μM); 0.95 on FZD2 (FZD2, tracer 1μM); 1.32 on GABBR1 (GABBR1, tracer 0.1μM); 1.14 at GABBR1 (GABBR1, tracer 1μM). For the same compound, the “NanoBRET Fold Response” value at GRM3 (GRM3, tracer 0.1μM) was determined as 0.82; at GRM3 (GRM3, tracer 1μM) it was 1.09; on SSTR5 (SSTR5, tracer 0.1μM), 0.93; on SSTR5 (SSTR5, tracer 1μM), 1.04; at P2RY10 (P2RY10, tracer 0.1μM) it was 0.91; on P2RY10 (P2RY10, tracer 1μM), 0.89.
Take `CN1CCN(C2=Nc3cc(Cl)ccc3N(CC(=O)NCCOCCOCCOCCOCCNC(=O)CCc3ccc4n3[B-](F)(F)[N+]3=C(c5ccc[nH]5)C=CC3=C4)c3ccccc32)CC1` [Clozapine-c-2-NB590]: the “NanoBRET Fold Response” value at C5AR2 (C5AR2, 0.1μM tracer) is reported as 0.99; at C5AR2 (C5AR2, 1μM tracer), 1.00; at FZD2 (FZD2, 0.1μM tracer), 1.01; at FZD2 (FZD2, 1μM tracer), 0.90; on GABBR1 (GABBR1, 0.1μM tracer), 0.97; at GABBR1 (GABBR1, 1μM tracer), 0.89. Also, the “NanoBRET Fold Response” value is 0.93 on GRM3 (GRM3, 0.1μM tracer); 1.07 at GRM3 (GRM3, 1μM tracer); 1.01 at SSTR5 (SSTR5, 0.1μM tracer); 0.99 at SSTR5 (SSTR5, 1μM tracer); 1.06 at P2RY10 (P2RY10, 0.1μM tracer); 0.98 at P2RY10 (P2RY10, 1μM tracer).
As to `N#CN=C(NCCCOc1cccc(CN2CCCCC2)c1)NCCNC(=O)CCOCCOCCOCCOCCNC(=O)CCc1ccc2n1[B-](F)(F)[N+]1=C(c3ccc[nH]3)C=CC1=C2` [Aminopotentidine-2-NB590], the “NanoBRET Fold Response” value is reported as 1.06 on C5AR2 (C5AR2, tracer 0.1μM); 1.03 on C5AR2 (C5AR2, tracer 1μM); 1.08 at FZD2 (FZD2, tracer 0.1μM); 1.06 at FZD2 (FZD2, tracer 1μM); 1.06 at GABBR1 (GABBR1, tracer 0.1μM); 1.00 at GABBR1 (GABBR1, tracer 1μM). For the same compound, the “NanoBRET Fold Response” value at GRM3 (GRM3, tracer 0.1μM) was found to be 1.01; at GRM3 (GRM3, tracer 1μM), 1.03; at SSTR5 (SSTR5, tracer 0.1μM), 0.97; at SSTR5 (SSTR5, tracer 1μM), 1.00; on P2RY10 (P2RY10, tracer 0.1μM), 1.03; at P2RY10 (P2RY10, tracer 1μM), 1.02.
